From US5001255A, “Idene analogs of mevalonolactone and derivatives thereof” (Sandoz Pharm. Corp., priority 1988, dated 1991) come the findings set out here.

For orientation: ED50 means the dose at which the effect has come halfway, by size or by number of responders.

One assay concerns the target T1, HMG-CoA reductase (Rattus norvegicus, UniProt P51639).
T1 sequence (P51639 1-887): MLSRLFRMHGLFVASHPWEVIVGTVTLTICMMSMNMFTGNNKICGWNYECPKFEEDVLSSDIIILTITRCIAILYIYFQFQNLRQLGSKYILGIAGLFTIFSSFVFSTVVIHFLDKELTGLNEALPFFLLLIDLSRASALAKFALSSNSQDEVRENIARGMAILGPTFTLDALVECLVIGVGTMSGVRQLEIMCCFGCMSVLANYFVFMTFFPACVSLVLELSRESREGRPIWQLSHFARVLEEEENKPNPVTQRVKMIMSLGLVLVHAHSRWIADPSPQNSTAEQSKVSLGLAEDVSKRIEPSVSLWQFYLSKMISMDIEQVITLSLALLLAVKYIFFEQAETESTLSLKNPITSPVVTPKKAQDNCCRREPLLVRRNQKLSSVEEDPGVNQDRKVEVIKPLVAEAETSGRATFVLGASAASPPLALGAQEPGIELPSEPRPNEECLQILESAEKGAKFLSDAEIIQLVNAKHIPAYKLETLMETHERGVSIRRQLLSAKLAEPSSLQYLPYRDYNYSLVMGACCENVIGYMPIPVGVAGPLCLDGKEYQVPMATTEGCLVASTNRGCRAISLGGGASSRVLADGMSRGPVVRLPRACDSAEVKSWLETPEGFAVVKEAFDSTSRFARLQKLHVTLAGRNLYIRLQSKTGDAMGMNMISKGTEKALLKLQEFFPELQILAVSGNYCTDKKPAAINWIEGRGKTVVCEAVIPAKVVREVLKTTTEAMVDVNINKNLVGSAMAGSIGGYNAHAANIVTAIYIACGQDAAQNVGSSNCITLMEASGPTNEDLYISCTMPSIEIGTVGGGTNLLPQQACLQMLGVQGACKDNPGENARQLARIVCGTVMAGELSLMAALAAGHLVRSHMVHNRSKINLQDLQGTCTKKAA
As to the kind of experiment: Test A. In Vitro Microsomal Assay of HMG-CoA Reductase Inhibition. The format is biochemical, rat (male Sprague-Dawley). Conditions: rat liver microsomes; [14C]HMG-CoA substrate; test substance 0.0001-2,000 μmolar; read-out: IC50 (concentration producing a 50% inhibition of HMG-CoA reductase activity). The procedure: Test A. In Vitro Microsomal Assay of HMG-CoA Reductase Inhibition:
200 μl. aliquots (1.08-1.50 mg./ml.) of rat liver microsomal suspensions, freshly prepared from male Sprague-Dawley rats (150-225 g. body weight), in Buffer A with 10 mmol. dithiothreitol are incubated with 10 μl. of a solution of the test substance in dimethylacetamide and assayed for HMG-CoA reductase activity as described in Ackerman et al., J. Lipid Res. 18, 408-413 (1977), the concentration of the test substance in the assay system being 0.0001-2,000 μmolar. In the assay the microsomes are the source of the HMG-CoA reductase enzyme which catalyzes the reduction of HMG-CoA to mevalonate. The assay employs a chloroform extraction to separate the product, [^14 C]mevalonolactone, formed by the HMG-CoA reductase reduction of the substrate, [^14 C]HMG-CoA. [^3 H]mevalonolactone is added as an internal reference. Inhibition of HMG-CoA reductase is calculated from the decrease in specific activity ([^14 C/^3 H]mevalonate) of test groups compared to controls.
IC50 is the concentration of the test substance in the assay system calculated or observed to produce a 50% inhibition of HMG-CoA reductase activity.
On the technique in general: Liver microsomes are a subcellular fraction often used to study metabolism.

Assay [1] relates to 3β-hydroxysterol synthesis. As to the kind of experiment: Test B. In Vivo Cholesterol Biosynthesis Inhibition Test. Details: species or system rat (male Wistar Royal Hart). Conditions: Rattus norvegicus; rats, oral, 0.5% carboxymethylcellulose; i.p. sodium [1-14C]acetate one hour later; serum two hours after mid-dark; read-out: ED50 (dose producing a 50% inhibition of 3β-hydroxysterol synthesis).
Procedure: Test B. In Vivo Cholesterol Biosynthesis Inhibition Test:
In vivo studies utilize male Wistar Royal Hart rats weighing 150±20 g. which have been kept for 7-10 days on an
altered light cycle (6:30 A.M.-6:30 P.M. dark) housed two per cage and fed powdered Purina Rat Chow and water ad libitum. Three hours before the diurnal maximum of cholesterol synthesis at mid-dark, the rats are orally administered the test substance (e.g., 0.01-200 mg./kg. body weight) dissolved or as a suspension in 0.5% carboxymethylcellulose in a volume of 1 ml./100 g. body weight. Controls receive vehicle alone. One hour after receiving the test substance (or the vehicle alone), the rats are injected intraperitoneally with about 25 μCi/100 g. body weight of sodium [1-^14 C]acetate 1-3 mCi/mmol. Two hours after mid-dark, blood samples are obtained under sodium hexobarbitol anesthesia, and the serum is separated by centrifugation.
The [^14 C]digitonides are then counted by liquid scintillation spectrometry. After correcting for efficiencies, the results are calculated in nCi (nanocuries) of 3β-hydroxysterol formed per 100 ml. of serum. Inhibition of 3β-hydroxysterol synthesis is calculated from the reduction in the nCi of 3β-hydroxysterols formed from test qroups compared to controls.
ED50 is the dose of the test substance calculated or observed to produce a 50% inhibition of 3β-hydroxysterol synthesis.

On to `CC(C)C1C(/C=C/[C@@H]2C[C@@H](O)CC(=O)O2)=C(c2ccc(F)cc2)c2ccccc21` (some centres unmarked) [Example 20], for which the IC50 on HMG-CoA reductase was determined as 530 nM.

Consider `O=C(O)C[C@H](O)C[C@H](O)/C=C/C1=C(c2ccc(F)cc2)c2ccccc2C12CCCC2` (relative stereo) [Example 2, Sodium erythro-(E)-3,5-dihydroxy-7-[3'-(4"-fluorophenyl)spiro[cyclopentane-1,1'(1H)-inden]-2'-yl]hept-6-enoate], for which the ED50 in assay [1] was 0.07 mg/kg. Also, on HMG-CoA reductase, the IC50 came out at 5 nM.

As for `Cc1cc(C)cc(C2=C(/C=C/[C@H]3C[C@@H](O)CC(=O)O3)C3(CCCC3)c3ccccc32)c1` (relative stereo) [Example 7], at HMG-CoA reductase, the IC50 is 150 nM.

For the compound `O=C(O)C[C@H](O)C[C@H](O)/C=C/C1=C(c2ccc(F)cc2)c2ccccc2C12CCCC2`, the IC50 at HMG-CoA reductase turned out to be 3 nM.

On to `CC[C@H](C)C(=O)O[C@H]1CCC=C2C=C[C@H](C)[C@H](CC[C@@H]3C[C@@H](O)CC(=O)O3)[C@H]21` [Compactin, reference compound], for which the ED50 in assay [1] was found to be 3.5 mg/kg.

In the case of `CCOC(=O)CC(O)CC(O)/C=C/C1=C(c2ccc(F)cc2)c2ccccc2C12CC2` (centres unmarked) [Example 24], the ED50 in assay [1] turned out to be 0.71 mg/kg. Moreover, on HMG-CoA reductase, the IC50 worked out at 19 nM.

On to `Cc1cc(C)cc(C2=C(/C=C/[C@@H](O)C[C@@H](O)CC(=O)O)C3(CCCC3)c3ccccc32)c1` (relative stereo) [Example 8, Sodium erythro-(E)-3,5-dihydroxy-7-[3'-(3",5"-dimethylphenyl)spiro[cyclopentane-1,1'(1H)-inden]-2'-yl]hept-6-enoate], for which the ED50 in assay [1] is 0.31 mg/kg. Besides, the IC50 at HMG-CoA reductase was found to be 7 nM.

Turning to `CCC1(CC)C(/C=C/C(O)CC(O)CC(=O)O)=C(c2ccc(F)cc2)c2ccccc21` (centres unmarked) [Example 17], the IC50 at HMG-CoA reductase came to 4700 nM.
